Values quoted from earlier work, collected in article PMC10107917 (ACS Medicinal Chemistry Letters, 2023).
Bridge positions count the residues as written; N and C are the ends. Peptide text beside a SMILES is read from it.

Molecular target: furin
Conditions: cited from earlier work

## CC[C@H](C)[C@@H]1NC(=O)[C@@H]2CCCN2C(=O)[C@@H]2CCCN2C(=O)[C@H]([C@@H](C)CC)NC(=O)[C@H](CO)NC(=O)[C@H](CCCCN)NC(=O)[C@H](CCCCN)NC(=O)[C@@H](NC(=O)[C@H](CCCNC(=N)N)NC(=O)[C@@H](N)CCCCN)CSSC[C@@H](C(=O)N[C@@H](Cc2ccccc2)C(N)=O)NC1=O [FI, Lys-Arg-Cys(&)-Lys-Lys-Ser-Ile-Pro-Pro-Ile-Cys(&)-Phe-NH2, reference compound] (H-KRCKKSIPPICF-NH2; disulfide 3-11; N-terminus assumed)
  Ki: 0.49 nM
